The target of one test is T1, HiBit-BRM fusion protein (Homo sapiens, UniProt P51531).
T1 construct: expressed in transfected cells
Description: HiBiT-BRM cell-based degradation assay (Nano-Glo HiBiT Lytic Detection, 24 h). As to conditions: HeLa cells expressing HiBiT-BRM; for DC50: read-out: BRM HiBit Degradation IC50; for BRM HiBit Degradation Maximum measured: top dose 30 μM. An outline of the steps: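 HeLa cells stably expressing HiBiT-BRM were treated for 24 h with compounds (10-point 3-fold dilutions, 30 μM final top dose, in duplicate). HiBiT was detected by lytic LgBiT complementation luminescence. % degradation was normalized to DMSO (high control) and 2 μM of a reference BRM/BRG1 degrader (low control).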

Test [1] deals with T2, HiBit-BRG1 fusion protein (Homo sapiens, UniProt P51532).
T2 construct: expressed in transfected cells
Nature of the test: HiBiT-BRG1 cell-based degradation assay (Nano-Glo HiBiT Lytic Detection, 24 h). As to conditions: HeLa cells expressing HiBit-BRG1 and LgBit; for DC50: read-out: BRG1 HiBit Degradation IC50; for Dmax: HeLa, top dose 30 μM, read-out: BRG1 HiBit Degradation Maximum measured. An outline of the steps:
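Stable HeLa line expressing HiBiT-BRG1 and LgBiT, seeded at 5000 cells/well; luminescence read after lytic Nano-Glo HiBiT reagent and 10 min shaking at RT. % degradation normalised between DMSO (high control) and 2 μM reference BRM/BRG1 degrader (low control).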

T1 sequence (P51531 whole entry, the tested form may be a part): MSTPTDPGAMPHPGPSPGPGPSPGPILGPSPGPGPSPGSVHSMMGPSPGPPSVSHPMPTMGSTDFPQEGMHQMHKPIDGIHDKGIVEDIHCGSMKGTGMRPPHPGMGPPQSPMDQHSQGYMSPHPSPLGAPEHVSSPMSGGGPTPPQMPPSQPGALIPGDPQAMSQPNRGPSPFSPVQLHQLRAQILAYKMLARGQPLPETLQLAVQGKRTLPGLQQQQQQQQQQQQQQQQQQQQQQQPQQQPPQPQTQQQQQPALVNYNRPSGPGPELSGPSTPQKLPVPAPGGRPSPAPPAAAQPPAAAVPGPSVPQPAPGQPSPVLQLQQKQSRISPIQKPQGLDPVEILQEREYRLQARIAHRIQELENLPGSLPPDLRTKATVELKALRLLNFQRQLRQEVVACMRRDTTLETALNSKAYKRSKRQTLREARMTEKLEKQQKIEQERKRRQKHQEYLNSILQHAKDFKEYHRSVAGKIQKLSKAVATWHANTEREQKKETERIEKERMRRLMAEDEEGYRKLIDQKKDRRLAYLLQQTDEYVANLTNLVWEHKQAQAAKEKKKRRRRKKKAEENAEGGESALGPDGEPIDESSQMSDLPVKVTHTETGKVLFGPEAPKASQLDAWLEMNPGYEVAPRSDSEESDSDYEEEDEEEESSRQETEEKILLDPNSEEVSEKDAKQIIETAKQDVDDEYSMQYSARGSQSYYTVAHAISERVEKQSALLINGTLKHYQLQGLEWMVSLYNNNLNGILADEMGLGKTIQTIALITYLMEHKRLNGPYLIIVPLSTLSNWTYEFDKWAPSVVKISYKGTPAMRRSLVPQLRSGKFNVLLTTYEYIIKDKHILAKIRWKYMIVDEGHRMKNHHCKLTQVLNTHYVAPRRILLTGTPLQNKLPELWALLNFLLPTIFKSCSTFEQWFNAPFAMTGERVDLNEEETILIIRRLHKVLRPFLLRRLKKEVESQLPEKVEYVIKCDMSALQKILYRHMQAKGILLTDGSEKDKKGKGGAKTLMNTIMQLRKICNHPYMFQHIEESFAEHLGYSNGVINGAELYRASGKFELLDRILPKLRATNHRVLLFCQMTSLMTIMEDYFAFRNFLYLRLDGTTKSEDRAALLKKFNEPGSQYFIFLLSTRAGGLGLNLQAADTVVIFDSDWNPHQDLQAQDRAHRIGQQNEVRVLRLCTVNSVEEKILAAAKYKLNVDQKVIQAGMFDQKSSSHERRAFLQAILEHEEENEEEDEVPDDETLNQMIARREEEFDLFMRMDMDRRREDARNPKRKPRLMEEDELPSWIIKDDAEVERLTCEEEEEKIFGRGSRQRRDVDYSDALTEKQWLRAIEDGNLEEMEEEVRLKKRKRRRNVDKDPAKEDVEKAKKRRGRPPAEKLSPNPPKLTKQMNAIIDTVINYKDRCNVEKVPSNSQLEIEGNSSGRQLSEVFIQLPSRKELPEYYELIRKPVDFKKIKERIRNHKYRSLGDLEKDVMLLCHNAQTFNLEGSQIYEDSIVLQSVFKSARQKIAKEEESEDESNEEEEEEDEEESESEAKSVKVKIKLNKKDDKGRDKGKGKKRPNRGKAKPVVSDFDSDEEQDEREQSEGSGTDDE
T2 sequence (P51532 whole entry, the tested form may be a part): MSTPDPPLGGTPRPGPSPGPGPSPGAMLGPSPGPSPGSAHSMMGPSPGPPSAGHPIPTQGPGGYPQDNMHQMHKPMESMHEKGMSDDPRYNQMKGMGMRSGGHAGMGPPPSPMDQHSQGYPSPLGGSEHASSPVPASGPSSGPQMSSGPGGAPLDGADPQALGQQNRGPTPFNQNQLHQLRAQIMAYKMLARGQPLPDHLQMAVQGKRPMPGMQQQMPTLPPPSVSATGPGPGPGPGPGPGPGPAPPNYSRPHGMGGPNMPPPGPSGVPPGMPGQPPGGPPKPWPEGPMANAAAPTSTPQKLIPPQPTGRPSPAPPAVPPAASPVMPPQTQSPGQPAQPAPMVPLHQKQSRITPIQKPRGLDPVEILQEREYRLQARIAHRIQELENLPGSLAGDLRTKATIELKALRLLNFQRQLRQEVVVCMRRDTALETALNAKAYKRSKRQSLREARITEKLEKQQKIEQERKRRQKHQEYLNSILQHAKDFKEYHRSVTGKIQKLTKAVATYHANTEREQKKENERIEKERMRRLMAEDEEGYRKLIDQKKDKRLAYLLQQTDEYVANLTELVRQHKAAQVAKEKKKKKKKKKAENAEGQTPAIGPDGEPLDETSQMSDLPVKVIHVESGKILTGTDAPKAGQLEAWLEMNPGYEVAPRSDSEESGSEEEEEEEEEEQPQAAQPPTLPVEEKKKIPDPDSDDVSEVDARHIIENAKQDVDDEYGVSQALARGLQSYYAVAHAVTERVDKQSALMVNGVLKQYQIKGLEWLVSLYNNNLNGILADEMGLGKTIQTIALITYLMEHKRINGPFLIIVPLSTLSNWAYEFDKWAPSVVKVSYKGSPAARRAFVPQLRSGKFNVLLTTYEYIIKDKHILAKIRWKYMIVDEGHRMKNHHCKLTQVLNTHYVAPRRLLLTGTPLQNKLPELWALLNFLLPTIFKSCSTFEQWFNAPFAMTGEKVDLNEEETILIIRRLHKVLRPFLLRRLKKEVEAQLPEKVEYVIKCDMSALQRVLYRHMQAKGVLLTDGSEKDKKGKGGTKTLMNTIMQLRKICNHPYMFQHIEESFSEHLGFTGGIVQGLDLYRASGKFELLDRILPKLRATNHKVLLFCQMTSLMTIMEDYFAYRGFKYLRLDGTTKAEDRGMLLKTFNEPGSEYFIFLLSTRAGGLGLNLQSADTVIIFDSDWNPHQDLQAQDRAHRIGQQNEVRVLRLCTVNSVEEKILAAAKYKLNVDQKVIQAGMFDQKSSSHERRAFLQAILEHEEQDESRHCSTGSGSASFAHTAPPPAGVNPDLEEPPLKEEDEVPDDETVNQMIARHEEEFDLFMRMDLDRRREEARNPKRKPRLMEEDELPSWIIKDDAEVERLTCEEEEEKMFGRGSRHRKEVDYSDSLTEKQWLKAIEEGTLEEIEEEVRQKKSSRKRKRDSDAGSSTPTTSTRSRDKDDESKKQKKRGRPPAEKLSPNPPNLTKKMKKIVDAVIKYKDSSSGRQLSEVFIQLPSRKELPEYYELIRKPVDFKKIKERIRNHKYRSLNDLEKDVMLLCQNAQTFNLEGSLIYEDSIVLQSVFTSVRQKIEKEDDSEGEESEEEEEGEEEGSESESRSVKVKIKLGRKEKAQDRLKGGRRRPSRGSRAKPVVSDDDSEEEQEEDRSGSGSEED

With `Cc1ncsc1-c1ccc(CNC(=O)[C@@H]2C[C@@H](O)CN2C(=O)[C@@H](NC(=O)CCCCCCCCCNC(=O)C2(c3cc(-c4cccc(-c5csc(NC(=O)CNC(=O)c6ccn(S(C)(=O)=O)c6)n5)c4)ccn3)CC2)C(C)(C)C)cc1` [Compound 98, N-(2-((4-(3-(2-(1-((10-(((S)-1-((2S,4R)-4-hydroxy-2-((4-(4-methylthiazol-5-yl)benzyl)carbamoyl)pyrrolidin-1-yl)-3,3-dimethyl-1-oxobutan-2-yl)amino)-10-oxodecyl)carbamoyl)cyclopropyl)-pyridin-4-yl)phenyl)thiazol-2-yl)amino)-2-oxoethyl)-1-(methylsulfonyl)-1H-pyrrole-3-carboxamide], at HiBit-BRM fusion protein, the DC50 is under 100 nM and the “BRM HiBit Degradation Maximum measured” value is “A (‘A’ = Maximum degradation >75%)”. In test [1], the DC50 was under 100 nM and the Dmax was over 75%.

On to `Cc1ncsc1-c1ccc(CNC(=O)[C@@H]2C[C@@H](O)CN2C(=O)[C@@H](NC(=O)CCCCCCCNC(=O)C2(c3cc(-c4cccc(-c5csc(NC(=O)CNC(=O)c6ccn(S(C)(=O)=O)c6)n5)c4)ccn3)CC2)C(C)(C)C)cc1` [Compound 99, N-(2-((4-(3-(2-(1-((8-(((S)-1-((2S,4R)-4-hydroxy-2-((4-(4-methylthiazol-5-yl)benzyl)carbamoyl)pyrrolidin-1-yl)-3,3-dimethyl-1-oxobutan-2-yl)amino)-8-oxooctyl)carbamoyl)cyclopropyl)-pyridin-4-yl)phenyl)thiazol-2-yl)amino)-2-oxoethyl)-1-(methylsulfonyl)-1H-pyrrole-3-carboxamide], for which, on HiBit-BRM fusion protein, the DC50 was under 100 nM and the “BRM HiBit Degradation Maximum measured” value is “A (‘A’ = Maximum degradation >75%)”. In test [1], the DC50 was under 100 nM and the Dmax is over 75%.

As for `Cc1ncsc1-c1ccc(CNC(=O)[C@@H]2C[C@@H](O)CN2C(=O)[C@@H](NC(=O)CCCCCNC(=O)C2(c3cc(-c4cccc(-c5csc(NC(=O)CNC(=O)c6ccn(S(C)(=O)=O)c6)n5)c4)ccn3)CC2)C(C)(C)C)cc1` [Compound 100, N-(2-((4-(3-(2-(1-((6-(((S)-1-((2S,4R)-4-hydroxy-2-((4-(4-methylthiazol-5-yl)benzyl)carbamoyl)pyrrolidin-1-yl)-3,3-dimethyl-1-oxobutan-2-yl)amino)-6-oxohexyl)carbamoyl)cyclopropyl)-pyridin-4-yl)phenyl)thiazol-2-yl)amino)-2-oxoethyl)-1-(methylsulfonyl)-1H-pyrrole-3-carboxamide], on HiBit-BRM fusion protein, the DC50 was in the range of 100 to 1000 nM and the “BRM HiBit Degradation Maximum measured” value is on record as “A (‘A’ = Maximum degradation >75%)”. In addition, in test [1], the DC50 is under 100 nM and the Dmax was over 75%.

Turning to `CS(=O)(=O)n1ccc(C(=O)NCC(=O)Nc2nc(-c3cccc(-c4ccnc(C5(C(=O)NCCOCCOCCNc6ccc7c(c6)C(=O)N(C6CCC(=O)NC6=O)C7=O)CC5)c4)c3)cs2)c1` (centres unmarked) [Compound 101, N-[2-[[4-[3-[2-[1-[2-[2-[2-[[2-(2,6-dioxo-3-piperidyl)-1,3-dioxo-isoindolin-5-yl]amino]ethoxy]ethoxy]ethylcarbamoyl]-cyclopropyl]-4-pyridyl]phenyl]thiazol-2-yl]amino]-2-oxo-ethyl]-1-methylsulfonylpyrrole-3-carboxamide], on HiBit-BRM fusion protein, the DC50 was over 10000 nM and the “BRM HiBit Degradation Maximum measured” value is listed as “C (‘C’ = Maximum degradation <50%)”. In test [1], the DC50 was over 10000 nM and the Dmax is under 50%.

Take `CS(=O)(=O)n1ccc(C(=O)NCC(=O)Nc2nc(-c3cccc(-c4ccnc(C5(C(=O)NCCS(=O)(=O)CCNc6cccc7c6C(=O)N(C6CCC(=O)NC6=O)C7=O)CC5)c4)c3)cs2)c1` (centres unmarked) [Compound 102, N-[2-[[4-[3-[2-[1-[2-[2-[[2-(2,6-dioxo-3-piperidyl)-1,3-dioxo-isoindolin-4-yl]amino]ethylsulfonyl]ethylcarbamoyl]-cyclopropyl]-4-pyridyl]phenyl]thiazol-2-yl]amino]-2-oxo-ethyl]-1-methylsulfonylpyrrole-3-carboxamide]: at HiBit-BRM fusion protein, the DC50 is over 10000 nM and the “BRM HiBit Degradation Maximum measured” value was “C (‘C’ = Maximum degradation <50%)”. Moreover, in test [1], the DC50 lay within 100 to 1000 nM and the Dmax is 50 to 75%.

These data come from US12662479B2 (Foghorn Therapeutics Inc., priority 2020, dated 2026).
